The results in this text go back to ChEMBL document CHEMBL1201862, “PubChem BioAssay data set” (2004).

In experiment [1] the target is DNA dC->dU-editing enzyme APOBEC-3A (Homo sapiens, UniProt P31941). In words: SAR analysis of small molecule inhibitors of APOBEC3A DNA Deaminase via a fluorescence-based single-stranded DNA deaminase assay. Type of experiment: functional. The conditions noted are these: read-out: IC50_Mean.
Experiment [2] addresses T1, Rac GTPase-activating protein 1 (Homo sapiens, UniProt Q9H0H5).
T1 sequence (Q9H0H5 whole entry): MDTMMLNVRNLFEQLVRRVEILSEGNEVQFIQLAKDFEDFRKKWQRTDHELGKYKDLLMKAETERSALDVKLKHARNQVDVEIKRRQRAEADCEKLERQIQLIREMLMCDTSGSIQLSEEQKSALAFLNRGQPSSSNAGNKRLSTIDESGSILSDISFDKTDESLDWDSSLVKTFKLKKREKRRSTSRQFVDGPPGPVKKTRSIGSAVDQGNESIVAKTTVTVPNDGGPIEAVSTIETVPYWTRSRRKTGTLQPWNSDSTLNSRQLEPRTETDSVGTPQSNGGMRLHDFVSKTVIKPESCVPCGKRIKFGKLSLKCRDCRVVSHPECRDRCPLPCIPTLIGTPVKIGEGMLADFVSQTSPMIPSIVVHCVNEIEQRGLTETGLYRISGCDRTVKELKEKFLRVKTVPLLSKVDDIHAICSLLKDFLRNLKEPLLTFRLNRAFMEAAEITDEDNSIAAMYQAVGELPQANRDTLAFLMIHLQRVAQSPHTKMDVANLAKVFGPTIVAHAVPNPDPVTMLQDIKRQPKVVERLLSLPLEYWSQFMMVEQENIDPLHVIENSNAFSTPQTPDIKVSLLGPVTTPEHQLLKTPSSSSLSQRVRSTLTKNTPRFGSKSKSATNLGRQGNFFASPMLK
In words: MgcRacGAP GTPase-activating activity inhibitors, confirmation, biochemical, ADP Hunter fluorescence, primary and confirmatory (AID 624330). The format is functional.

For experiment [3], the target named is DNA dC->dU-editing enzyme APOBEC-3G (Homo sapiens, UniProt Q9HC16). Nature of the experiment: APOBEC3G deaminase inhibitors, SAR follow-up, biochemical, fluorescence, single-stranded DNA substrate (AID 602136). Type of experiment: functional. The conditions noted are these: read-out: IC50_Mean.
For the next experiment, the target named is T2, Coagulation factor XII (Homo sapiens, UniProt P00748).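 Note: activated factor XIIa alpha cleaving a fluorogenic AMC peptide substrate; inhibitor potency from loss of enzyme activity.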
T2 sequence (P00748 whole entry): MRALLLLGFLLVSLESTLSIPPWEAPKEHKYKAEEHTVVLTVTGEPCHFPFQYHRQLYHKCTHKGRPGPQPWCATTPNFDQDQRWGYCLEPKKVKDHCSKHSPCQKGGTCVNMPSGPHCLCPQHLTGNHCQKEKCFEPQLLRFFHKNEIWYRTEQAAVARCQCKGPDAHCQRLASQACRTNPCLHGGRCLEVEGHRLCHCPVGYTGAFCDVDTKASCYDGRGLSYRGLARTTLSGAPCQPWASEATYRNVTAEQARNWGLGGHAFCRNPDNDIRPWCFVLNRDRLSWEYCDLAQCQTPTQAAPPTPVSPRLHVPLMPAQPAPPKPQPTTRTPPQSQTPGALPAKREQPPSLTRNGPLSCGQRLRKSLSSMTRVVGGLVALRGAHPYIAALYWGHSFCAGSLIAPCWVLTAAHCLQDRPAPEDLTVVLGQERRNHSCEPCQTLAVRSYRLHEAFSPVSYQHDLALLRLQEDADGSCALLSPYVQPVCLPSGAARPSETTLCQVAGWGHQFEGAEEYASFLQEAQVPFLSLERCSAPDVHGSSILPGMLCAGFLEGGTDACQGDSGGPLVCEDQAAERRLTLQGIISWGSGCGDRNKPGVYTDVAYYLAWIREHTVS
The format is functional.

Experiment [4] can be described thus: nonselective inhibitors of cellular cAMP signaling, dose response, counter-screen for MC4R biased antagonist project, cell-based, TR-FRET cAMP detection (AID 602305).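 Note: U2OS cells stimulated with forskolin near its EC80 as the cAMP inducer; potency is for inhibition of forskolin-stimulated cAMP signaling.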 Type of experiment: functional.
In another experiment the target is Melanocortin receptor 4 (Homo sapiens, UniProt P32245). In words: MC4R antagonist potency on cAMP, dose response, cell-based, TR-FRET, biased antagonists (AID 602298).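 Note: antagonist potency against agonist-stimulated cAMP production.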 The format is functional.
Another experiment relates to Vero. Nature of the experiment: cells. The conditions noted are these: Chlorocebus sabaeus. The format is functional.
The target in experiment [5] is T3, Polyadenylate-binding protein 1 (Homo sapiens, UniProt P11940). Nature of the experiment: PABP1 MLLE–PAM2 binding inhibitor potency, dose response, biochemical, fluorescence polarization, FITC-PAM2 peptide (AID 602259). The format is functional. The conditions noted are these: read-out: IC50_Mean.
For the next experiment, the target named is Genome polyprotein (dengue virus type 2, UniProt P29990). Nature of the experiment: Dengue-2 NS5 methyltransferase inhibitors, primary screen, biochemical, confirmation dose response (AID 588689). The format is functional.
For experiment [6], the target named is T3, Polyadenylate-binding protein 1. In words: PABP1 MLLE–PAM2 interaction inhibitors, dose response, miRNA deadenylation inhibitor project, biochemical, fluorescence polarization, Cy5-PAM2 peptide, secondary (AID 602260). The format is functional. The following applies: read-out: IC50_Mean.
Experiment [7] has as its target Mitochondrial peptide methionine sulfoxide reductase (Bos taurus, UniProt P54149). Nature of the experiment: Absorbance-based biochemical high throughput dose response assay for activators of Methionine sulfoxide reductase A (MsrA). The format is functional.
Experiment [8] deals with Aryl hydrocarbon receptor (Homo sapiens, UniProt P35869). The conditions noted are these: Potency.
In a further experiment the target is Cytochrome P450 3A4 (Homo sapiens, UniProt P08684). The conditions noted are these: Potency.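 Note: confirmatory qHTS run detecting inhibitors and substrates of CYP3A4.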
In experiment [9] the target is CAAX prenyl protease 2 (Homo sapiens, UniProt Q9Y256). In words: human Rce1 protease inhibitors, dose response, biochemical, yeast membranes, quenched-peptide fluorescence, cherry-pick (AID 588849).
Experiment [10] has as its target T4, CAAX prenyl protease 2 (Saccharomyces cerevisiae S288c, UniProt Q03530).
T4 sequence (Q03530 whole entry): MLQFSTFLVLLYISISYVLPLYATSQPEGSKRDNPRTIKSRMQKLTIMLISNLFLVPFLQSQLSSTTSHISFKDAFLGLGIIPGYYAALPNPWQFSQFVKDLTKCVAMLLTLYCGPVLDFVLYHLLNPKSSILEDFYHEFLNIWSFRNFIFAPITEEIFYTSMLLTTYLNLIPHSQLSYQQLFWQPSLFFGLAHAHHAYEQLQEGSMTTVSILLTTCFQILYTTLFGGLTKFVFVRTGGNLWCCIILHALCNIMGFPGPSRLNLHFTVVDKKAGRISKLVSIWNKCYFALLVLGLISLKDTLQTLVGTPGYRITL
The format is biochemical.

Another experiment deals with CAAX prenyl protease 1 (Saccharomyces cerevisiae S288c, UniProt P47154). Nature of the experiment: Ste24 protease inhibitors, dose response, biochemical, S. cerevisiae, plate reader, cherry-pick (AID 488815).
The target of the next experiment is Trypsin (Sus scrofa, UniProt P00761). Nature of the experiment: porcine trypsin inhibitors, dose response, selectivity assay for Rce1 protease inhibitor project, biochemical, quenched peptide fluorescence, cherry-pick (AID 488789).
A short description of experiment [11]: THP-1 cell cytotoxicity, cytotoxicity control, set 4 (AID 504911). The following applies: Mycobacterium tuberculosis. Type of experiment: functional.

Molecules are shown by their SMILES. Activity calls are given as the source filed them. Some results are limits rather than exact numbers.

DNA dC->dU-editing enzyme APOBEC-3A, sequence (P31941 whole entry): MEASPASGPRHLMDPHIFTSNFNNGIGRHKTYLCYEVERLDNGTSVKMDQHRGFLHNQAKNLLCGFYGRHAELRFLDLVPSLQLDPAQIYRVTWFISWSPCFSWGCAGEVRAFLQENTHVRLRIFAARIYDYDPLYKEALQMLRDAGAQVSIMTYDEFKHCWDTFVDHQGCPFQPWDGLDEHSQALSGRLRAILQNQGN
DNA dC->dU-editing enzyme APOBEC-3G, sequence (Q9HC16 whole entry): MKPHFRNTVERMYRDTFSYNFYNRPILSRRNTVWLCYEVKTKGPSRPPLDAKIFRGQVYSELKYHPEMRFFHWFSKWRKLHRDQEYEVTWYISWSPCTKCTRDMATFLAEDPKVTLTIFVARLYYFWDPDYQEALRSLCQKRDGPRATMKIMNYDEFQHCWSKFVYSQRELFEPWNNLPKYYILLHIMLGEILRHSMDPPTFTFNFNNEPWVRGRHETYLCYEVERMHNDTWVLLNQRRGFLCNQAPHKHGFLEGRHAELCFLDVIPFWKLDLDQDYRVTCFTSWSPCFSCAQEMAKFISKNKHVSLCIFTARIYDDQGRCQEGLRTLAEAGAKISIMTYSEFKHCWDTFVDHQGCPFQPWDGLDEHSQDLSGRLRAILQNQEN
T3 sequence (P11940 whole entry): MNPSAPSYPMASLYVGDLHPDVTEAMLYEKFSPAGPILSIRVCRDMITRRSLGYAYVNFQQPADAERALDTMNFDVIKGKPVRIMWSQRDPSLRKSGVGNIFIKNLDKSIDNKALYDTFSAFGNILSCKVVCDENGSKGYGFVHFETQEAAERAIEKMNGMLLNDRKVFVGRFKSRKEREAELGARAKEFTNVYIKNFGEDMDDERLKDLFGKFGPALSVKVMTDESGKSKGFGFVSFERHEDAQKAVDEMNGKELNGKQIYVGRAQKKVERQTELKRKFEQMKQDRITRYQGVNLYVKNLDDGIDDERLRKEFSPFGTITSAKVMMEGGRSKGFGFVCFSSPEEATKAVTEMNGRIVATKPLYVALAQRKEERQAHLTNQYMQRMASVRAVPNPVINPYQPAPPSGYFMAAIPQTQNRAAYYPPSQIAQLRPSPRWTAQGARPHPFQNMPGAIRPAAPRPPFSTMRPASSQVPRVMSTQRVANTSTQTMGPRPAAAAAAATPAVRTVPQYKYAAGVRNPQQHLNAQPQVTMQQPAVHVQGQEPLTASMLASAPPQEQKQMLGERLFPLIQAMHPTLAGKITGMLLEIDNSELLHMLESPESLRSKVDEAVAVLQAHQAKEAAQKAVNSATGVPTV
Mitochondrial peptide methionine sulfoxide reductase, sequence (P54149 whole entry): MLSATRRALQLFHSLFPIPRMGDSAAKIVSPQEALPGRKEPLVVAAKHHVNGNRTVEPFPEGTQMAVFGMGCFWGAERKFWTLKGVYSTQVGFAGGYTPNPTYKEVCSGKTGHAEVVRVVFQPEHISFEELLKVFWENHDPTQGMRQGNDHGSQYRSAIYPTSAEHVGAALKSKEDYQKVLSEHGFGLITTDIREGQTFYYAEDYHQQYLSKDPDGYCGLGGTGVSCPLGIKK
Trypsin, sequence (P00761 whole entry): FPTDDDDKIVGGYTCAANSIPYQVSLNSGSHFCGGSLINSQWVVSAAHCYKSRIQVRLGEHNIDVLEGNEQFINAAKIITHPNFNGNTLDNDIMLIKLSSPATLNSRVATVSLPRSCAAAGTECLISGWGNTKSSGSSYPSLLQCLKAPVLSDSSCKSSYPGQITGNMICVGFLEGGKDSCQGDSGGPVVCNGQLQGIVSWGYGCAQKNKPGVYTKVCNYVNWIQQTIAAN
CAAX prenyl protease 2 (Homo sapiens, UniProt Q9Y256), sequence (Q9Y256 whole entry): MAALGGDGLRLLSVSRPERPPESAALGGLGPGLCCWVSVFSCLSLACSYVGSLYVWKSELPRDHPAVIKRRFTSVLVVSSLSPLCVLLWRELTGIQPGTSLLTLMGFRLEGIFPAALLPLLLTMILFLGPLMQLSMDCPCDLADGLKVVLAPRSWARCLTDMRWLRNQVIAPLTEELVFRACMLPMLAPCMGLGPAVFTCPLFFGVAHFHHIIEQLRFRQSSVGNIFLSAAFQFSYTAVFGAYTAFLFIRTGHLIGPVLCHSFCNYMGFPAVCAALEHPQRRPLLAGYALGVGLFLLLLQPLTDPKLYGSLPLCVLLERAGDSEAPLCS
Genome polyprotein, sequence (P29990 2492-3391 limits assumed): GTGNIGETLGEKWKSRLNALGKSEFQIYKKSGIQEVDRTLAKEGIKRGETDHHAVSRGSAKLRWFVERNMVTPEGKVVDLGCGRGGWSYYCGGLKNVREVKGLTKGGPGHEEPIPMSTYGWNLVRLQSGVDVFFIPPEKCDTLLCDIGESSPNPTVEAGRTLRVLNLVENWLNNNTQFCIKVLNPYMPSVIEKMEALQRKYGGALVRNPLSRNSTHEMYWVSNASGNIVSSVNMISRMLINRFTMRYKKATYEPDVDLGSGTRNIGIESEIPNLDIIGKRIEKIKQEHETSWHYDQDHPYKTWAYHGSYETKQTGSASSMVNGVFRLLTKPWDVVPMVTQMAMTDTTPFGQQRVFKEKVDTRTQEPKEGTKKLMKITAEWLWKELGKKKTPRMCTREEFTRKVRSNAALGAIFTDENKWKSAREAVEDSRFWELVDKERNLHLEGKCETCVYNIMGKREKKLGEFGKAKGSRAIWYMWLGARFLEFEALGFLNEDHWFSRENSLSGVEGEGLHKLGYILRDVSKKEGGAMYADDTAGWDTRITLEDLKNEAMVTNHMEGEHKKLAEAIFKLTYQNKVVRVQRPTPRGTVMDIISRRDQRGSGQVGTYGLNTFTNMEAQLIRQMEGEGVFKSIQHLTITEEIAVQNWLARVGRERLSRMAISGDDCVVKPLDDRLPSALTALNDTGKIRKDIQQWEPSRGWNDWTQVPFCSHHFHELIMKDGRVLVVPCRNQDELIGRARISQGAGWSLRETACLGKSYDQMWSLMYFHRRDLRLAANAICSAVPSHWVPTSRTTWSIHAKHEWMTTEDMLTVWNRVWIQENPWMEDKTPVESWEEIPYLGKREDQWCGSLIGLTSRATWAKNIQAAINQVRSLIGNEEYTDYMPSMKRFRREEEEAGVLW
CAAX prenyl protease 1, sequence (P47154 whole entry): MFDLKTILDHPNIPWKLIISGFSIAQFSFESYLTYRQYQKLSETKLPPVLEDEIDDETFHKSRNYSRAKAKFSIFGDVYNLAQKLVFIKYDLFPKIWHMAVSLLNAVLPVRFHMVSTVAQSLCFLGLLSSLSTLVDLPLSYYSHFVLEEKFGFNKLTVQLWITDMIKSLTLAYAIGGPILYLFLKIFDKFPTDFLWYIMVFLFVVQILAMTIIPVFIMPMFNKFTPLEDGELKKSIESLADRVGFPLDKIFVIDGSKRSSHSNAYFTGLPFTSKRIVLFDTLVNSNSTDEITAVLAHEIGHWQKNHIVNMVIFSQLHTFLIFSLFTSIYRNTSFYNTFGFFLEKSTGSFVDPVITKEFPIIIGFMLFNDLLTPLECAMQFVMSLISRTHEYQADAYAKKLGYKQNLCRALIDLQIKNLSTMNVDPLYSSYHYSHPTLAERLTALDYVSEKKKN
Cytochrome P450 3A4, sequence (P08684 whole entry): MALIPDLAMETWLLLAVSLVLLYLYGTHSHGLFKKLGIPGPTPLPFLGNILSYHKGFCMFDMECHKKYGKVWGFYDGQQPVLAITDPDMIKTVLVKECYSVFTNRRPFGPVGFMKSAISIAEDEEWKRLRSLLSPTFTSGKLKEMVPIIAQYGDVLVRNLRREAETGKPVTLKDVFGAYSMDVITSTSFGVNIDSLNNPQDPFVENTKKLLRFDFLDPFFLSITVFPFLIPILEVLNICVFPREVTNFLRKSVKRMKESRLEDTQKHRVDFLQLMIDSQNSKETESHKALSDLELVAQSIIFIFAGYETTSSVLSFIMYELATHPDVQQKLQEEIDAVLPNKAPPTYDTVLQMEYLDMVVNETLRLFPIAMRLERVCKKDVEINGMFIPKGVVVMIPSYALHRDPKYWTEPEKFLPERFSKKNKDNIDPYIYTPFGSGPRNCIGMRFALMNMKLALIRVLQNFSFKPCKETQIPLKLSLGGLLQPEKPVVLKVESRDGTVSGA
Aryl hydrocarbon receptor, sequence (P35869 whole entry): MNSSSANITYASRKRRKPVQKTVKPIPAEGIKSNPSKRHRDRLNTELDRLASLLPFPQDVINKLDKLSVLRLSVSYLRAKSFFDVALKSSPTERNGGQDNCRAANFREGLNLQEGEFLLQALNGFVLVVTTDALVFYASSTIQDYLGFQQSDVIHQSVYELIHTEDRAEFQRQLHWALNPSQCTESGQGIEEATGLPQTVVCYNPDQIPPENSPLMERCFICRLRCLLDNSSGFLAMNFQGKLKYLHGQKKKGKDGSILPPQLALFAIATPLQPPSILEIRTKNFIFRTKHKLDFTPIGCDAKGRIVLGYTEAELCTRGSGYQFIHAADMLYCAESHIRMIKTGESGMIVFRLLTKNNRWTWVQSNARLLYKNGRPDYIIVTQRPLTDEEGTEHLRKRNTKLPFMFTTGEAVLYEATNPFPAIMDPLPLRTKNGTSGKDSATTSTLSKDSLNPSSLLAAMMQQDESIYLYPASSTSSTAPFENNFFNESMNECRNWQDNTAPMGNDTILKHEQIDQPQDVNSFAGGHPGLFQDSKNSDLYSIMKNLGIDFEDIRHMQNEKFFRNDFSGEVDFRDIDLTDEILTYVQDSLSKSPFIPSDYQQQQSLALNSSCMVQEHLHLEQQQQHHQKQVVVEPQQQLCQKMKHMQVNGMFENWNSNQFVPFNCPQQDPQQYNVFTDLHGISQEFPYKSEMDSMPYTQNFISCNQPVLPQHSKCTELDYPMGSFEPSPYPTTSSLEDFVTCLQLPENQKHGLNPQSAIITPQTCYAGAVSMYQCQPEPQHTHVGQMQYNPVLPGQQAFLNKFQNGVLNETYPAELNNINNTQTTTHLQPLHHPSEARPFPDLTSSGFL

With `O=C(CNCc1ccccn1)Nc1cc(C(F)(F)F)ccc1N1CCOCC1`, the IC50 in [1] is > 99 µM (inactive); in [2], 138 µM (active); in experiment [3], > 99 µM (inactive); on Coagulation factor XII, > 50 µM (inactive).
For the molecule `COC(=O)C=C1CCC2C3CCC4=CC(=O)C(Br)CC4(C)C3C(=O)CC12C` (stereo not given), the IC50 (in experiment [4]; at Melanocortin receptor 4) was > 64.6 µM (inactive) throughout. Besides, the CC50 in the experiment with Vero was > 25 µM (active).
`O=C1c2ccccc2C(=O)c2c(/C=C/N3CCCCC3)ccnc21`: the figures for the IC50 (in experiment [5]; on Genome polyprotein; in experiment [6]) were 50.2 µM (inactive), 61.6 µM (active) and > 66 µM (inactive), respectively. The EC50 in experiment [7] is > 104 µM (inactive).
`O=C(CSc1nnc2scc(-c3ccccc3)n12)Nc1cccc(C(F)(F)F)c1`: the IC50 in [1] and in [3] was > 99 µM (inactive) each time.
With `COc1ccc2nc(N)sc2c1`, the AC50 in experiment [8] was 44.7 µM (inconclusive); on Cytochrome P450 3A4, 31.6 µM (inconclusive).
`COC(=O)c1sc2cnccc2c1N`: the AC50 was 2.57 µM (active) at CAAX prenyl protease 2 [9], 14 µM (active) at CAAX prenyl protease 2 [10], 4.39 µM (active) at CAAX prenyl protease 1 and 9.63 µM (active) on Trypsin.
With `COc1cccc(NC(=O)CSc2nc3c(c(=O)[nH]2)CCC3)c1`, the CC50 in experiment [11] is > 100 µM (active).
